Data: ChEMBL document CHEMBL1148629, “Pyrrolopyridazine MEK inhibitors” (Bioorg Med Chem Lett, 2006)

Tests used:
[1] = target: Dual specificity mitogen-activated protein kinase kinase 1 (Homo sapiens, UniProt Q02750); test: Inhibitory activity against MEK
HT-29 = test: Antiproliferative activity against human tumor HT29 cell line; assay type: functional
COLO 205 = test: Antiproliferative activity against human tumor Colo205 cell line; assay type: functional
[2] = target: Vascular endothelial growth factor receptor 2 (Homo sapiens) (UniProt P35968); test: Inhibitory activity against VEGFR2 upto 50 uM
Sequence of Vascular endothelial growth factor receptor 2 (Homo sapiens) (P35968 whole entry): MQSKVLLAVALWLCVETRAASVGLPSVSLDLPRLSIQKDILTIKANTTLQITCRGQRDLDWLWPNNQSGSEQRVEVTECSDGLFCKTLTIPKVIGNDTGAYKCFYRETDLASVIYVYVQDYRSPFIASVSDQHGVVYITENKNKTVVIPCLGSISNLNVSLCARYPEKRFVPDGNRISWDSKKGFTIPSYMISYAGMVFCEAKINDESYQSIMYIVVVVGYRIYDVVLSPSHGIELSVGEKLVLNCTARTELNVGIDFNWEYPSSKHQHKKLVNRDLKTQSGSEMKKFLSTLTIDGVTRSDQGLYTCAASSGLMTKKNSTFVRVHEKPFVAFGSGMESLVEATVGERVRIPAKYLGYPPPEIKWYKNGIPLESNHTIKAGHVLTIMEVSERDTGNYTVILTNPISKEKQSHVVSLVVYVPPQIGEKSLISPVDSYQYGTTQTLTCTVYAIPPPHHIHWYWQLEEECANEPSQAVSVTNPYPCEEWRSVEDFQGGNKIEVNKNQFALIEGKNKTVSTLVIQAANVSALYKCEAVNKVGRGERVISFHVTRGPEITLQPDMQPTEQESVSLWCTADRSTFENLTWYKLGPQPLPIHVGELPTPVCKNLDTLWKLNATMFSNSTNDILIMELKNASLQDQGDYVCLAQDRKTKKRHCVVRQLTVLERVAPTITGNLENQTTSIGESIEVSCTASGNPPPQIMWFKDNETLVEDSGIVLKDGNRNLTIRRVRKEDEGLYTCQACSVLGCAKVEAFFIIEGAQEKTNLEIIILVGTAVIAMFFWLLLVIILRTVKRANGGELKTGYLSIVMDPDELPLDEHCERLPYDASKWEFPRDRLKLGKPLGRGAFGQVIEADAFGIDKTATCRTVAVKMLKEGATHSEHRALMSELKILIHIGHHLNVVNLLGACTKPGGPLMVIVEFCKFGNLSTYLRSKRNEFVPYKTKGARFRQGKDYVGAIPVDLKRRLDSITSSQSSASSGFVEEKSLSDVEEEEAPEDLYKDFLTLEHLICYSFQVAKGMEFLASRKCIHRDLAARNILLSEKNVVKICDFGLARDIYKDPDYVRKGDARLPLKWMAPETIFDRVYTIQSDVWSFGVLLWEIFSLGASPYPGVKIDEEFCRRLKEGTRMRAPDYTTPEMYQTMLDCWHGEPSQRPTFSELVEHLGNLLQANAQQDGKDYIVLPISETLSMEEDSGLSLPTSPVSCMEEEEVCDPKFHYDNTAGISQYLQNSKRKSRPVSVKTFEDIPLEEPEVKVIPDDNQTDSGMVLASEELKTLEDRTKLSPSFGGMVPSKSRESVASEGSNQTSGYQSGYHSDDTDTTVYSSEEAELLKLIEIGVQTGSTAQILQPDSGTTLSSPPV

Sequence of Dual specificity mitogen-activated protein kinase kinase 1 (Q02750 whole entry): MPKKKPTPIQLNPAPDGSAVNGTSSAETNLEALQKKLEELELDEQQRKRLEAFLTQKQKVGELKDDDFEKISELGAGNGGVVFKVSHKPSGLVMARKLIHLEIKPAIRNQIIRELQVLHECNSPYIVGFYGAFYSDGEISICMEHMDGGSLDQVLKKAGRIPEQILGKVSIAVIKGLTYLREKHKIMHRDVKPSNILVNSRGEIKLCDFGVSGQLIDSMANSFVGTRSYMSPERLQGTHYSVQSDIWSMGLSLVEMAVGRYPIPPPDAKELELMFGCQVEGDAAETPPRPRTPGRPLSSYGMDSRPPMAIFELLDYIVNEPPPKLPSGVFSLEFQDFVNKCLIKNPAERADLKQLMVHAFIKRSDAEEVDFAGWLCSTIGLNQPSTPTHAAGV

Row | IC50 [1] [nM] | inhibition [2] [%] | SMILES | Activity (HT-29) [µM] | Activity (COLO 205) [µM]
1 | 24 | – | COc1ccccc1Oc1ccc(Nc2c(C#N)cnn3cc(NC(=O)NCCN4CCOCC4)c(C)c23)cc1 | – | –
2 | > 25000 | – | CCOC(=O)c1cn2ncc(C#N)c(Nc3ccc(-c4ccccc4)cc3)c2c1C | – | –
3 | 42 | – | Cc1c(NC(=O)c2ccccc2)cn2ncc(C#N)c(Nc3ccc(Oc4ccccc4)cc3)c12 | 2.13 | 2.42
4 | > 25000 | – | CCOC(=O)c1cn2ncc(C#N)c(Nc3ccccc3)c2c1C | – | –
5 | > 25000 | – | Cc1c(C(C)(C)O)cn2ncc(C#N)c(Nc3ccc(Oc4ccccc4)cc3)c12 | – | –
6 | 642 | – | CCOC(=O)c1cn2ncc(C#N)c(Nc3ccc(Oc4ccc(Cl)cc4)cc3)c2c1C | – | –
7 | 386 | – | Cc1c(C(=O)NCCN2CCOCC2)cn2ncc(C#N)c(Nc3ccc(Oc4ccccc4)cc3)c12 | – | –
8 | 48 | – | COc1ccccc1Oc1ccc(Nc2c(C#N)cnn3cc(NC(=O)OCCN4CCOCC4)c(C)c23)cc1 | 3.78 | 2.06
9 | > 25000 | – | CCOC(=O)c1cn2ncc(C#N)c(Nc3ccc(OCc4ccccc4)cc3)c2c1C | – | –
10 | > 25000 | – | Cc1c(C(=O)O)cn2ncc(CN)c(Nc3ccc(Oc4ccccc4)cc3)c12 | – | –
11 | 14600 | – | Cc1c(NS(=O)(=O)c2ccccc2)cn2ncc(C#N)c(Nc3ccc(Oc4ccccc4)cc3)c12 | – | –
12 | 36 | < 5 | Cc1c(NC(=O)NCCN2CCOCC2)cn2ncc(C#N)c(Nc3ccc(Oc4ccccc4)cc3)c12 | 0.86 | 3.9

Second part, the compound before the results:

Row | SMILES | IC50 [1] [nM] | inhibition [2] [%] | Activity (HT-29) [µM] | Activity (COLO 205) [µM]
13 | COC(=O)Nc1cn2ncc(C#N)c(Nc3ccc(Oc4ccccc4)cc3)c2c1C | 23 | – | 7.64 | –
14 | Cc1c(OCCN2CCOCC2)cn2ncc(C#N)c(Nc3ccc(Oc4ccccc4)cc3)c12 | 521 | – | – | –
15 | COc1cccc(Oc2ccc(Nc3c(C#N)cnn4cc(NC(=O)OCCN5CCOCC5)c(C)c34)cc2)c1 | 76 | – | 2.35 | 0.72
16 | CCOC(=O)c1cn2ncc(C#N)c(Nc3ccc(Oc4ccccc4)cc3)c2c1CO | 203 | – | – | –
17 | CNC(=O)Nc1cn2ncc(C#N)c(Nc3ccc(Oc4ccccc4)cc3)c2c1C | 18 | – | 7.38 | –
18 | Cc1c(C(=O)O)cn2ncc(C#N)c(Nc3ccc(Oc4ccccc4)cc3)c12 | 147 | – | – | –
19 | Cc1c(NC(=O)OCCN2CCOCC2)cn2ncc(C#N)c(Nc3ccc(Oc4ccccc4)cc3)c12 | 58 | < 5 | 3.76 | 2.88
20 | COc1cccc(Oc2ccc(Nc3c(C#N)cnn4cc(NC(=O)NCCN5CCOCC5)c(C)c34)cc2)c1 | 29 | – | – | –
21 | CC(=O)NCc1cnn2cc(C(=O)O)c(C)c2c1Nc1ccc(Oc2ccccc2)cc1 | > 25000 | – | – | –
22 | Cc1c(-c2nc3ccccc3[nH]2)cn2ncc(C#N)c(Nc3ccc(Oc4ccccc4)cc3)c12 | 168 | – | – | –
23 | Cc1c(C(=O)O)cn2ncc(CNS(C)(=O)=O)c(Nc3ccc(Oc4ccccc4)cc3)c12 | > 25000 | – | – | –
24 | Cc1ccn2ncc(C#N)c(Nc3ccc(Oc4ccccc4)cc3)c12 | 241 | – | >10 | >10
25 | CCOC(=O)c1cn2ncc(C#N)c(Nc3ccc(Cc4ccccc4)cc3)c2c1C | 68 | – | – | –
26 | CCOC(=O)c1cn2ncc(C#N)c(Oc3ccc(Oc4ccccc4)cc3)c2c1C | 5420 | – | – | –
27 | CCOC(=O)c1cn2ncc(C#N)c(NCc3ccc(Oc4ccccc4)cc3)c2c1C | > 25000 | – | – | –
28 | CCOC(=O)c1cn2ncc(C#N)c(Nc3ccc(C(=O)c4ccccc4)cc3)c2c1C | 1110 | – | – | –
29 | CCOCc1c(C(=O)OCC)cn2ncc(C#N)c(Nc3ccc(Oc4ccccc4)cc3)c12 | 331 | – | – | –
30 | Cc1c(NC(=O)NCCN2CCOCC2)cn2ncc(C#N)c(Nc3ccc(Oc4ccccc4F)cc3)c12 | 33 | – | – | –
31 | CCOC(=O)c1cn2ncc(C#N)c(Nc3ccc(Oc4ccccc4)cc3)c2c1COCCOC | 566 | – | – | –
32 | CC(=O)Nc1cccc(C(=O)Nc2cn3ncc(C#N)c(Nc4ccc(Oc5ccccc5)cc4)c3c2C)c1 | 14 | – | 1.34 | 1.86
33 | Cc1c(N)cn2ncc(C#N)c(Nc3ccc(Oc4ccccc4)cc3)c12 | 190 | – | – | –
34 | CCOC(=O)c1cn2ncc(C#N)c(Nc3ccc(Nc4ccccc4)cc3)c2c1C | 2320 | – | – | –
35 | CCOC(=O)c1cn2ncnc(Nc3ccc(Oc4ccccc4)cc3)c2c1C | 3470 | – | – | –
